Assay results taken from patent US5126436A (priority 1989, dated 1992).
In brackets after ≈: the same amount, converted by molar mass.

Legend:
Alternaria mali IFO 8984 = assay type: cell-based; settings: IFO8984, 20 μg/disc (diameter 8 mm), read-out: Inhibition Circle
From the text: (§1) The value in paretheses in the table denotes a partial inhibition.

[1] = test system: Candida albicans IFO 1594; assay type: cell-based; settings: IFO1594, 20 μg/disc (diameter 8 mm), read-out: Inhibition Circle
From the text: as §1

Chlorella vulgaris = assay type: cell-based; settings: 20 μg/disc (diameter 8 mm), read-out: Inhibition Circle
From the text: as §1

[2] = test system: Colletotrichum lagenarium IFO 7513; assay type: cell-based; settings: Colletotrichum orbiculare, IFO7513; 20 μg/disc (diameter 8 mm); value in parentheses denotes a partial inhibition; read-out: Inhibition Circle
From the text: as §1

Escherichia coli AB 1157 = assay type: cell-based; settings: AB1157, 20 μg/disc (diameter 8 mm), read-out: Inhibition Circle
From the text: as §1

Escherichia coli BE 1186 = assay type: cell-based; settings: BE1186, 20 μg/disc (diameter 8 mm), read-out: Inhibition Circle
From the text: as §1

[3] = test system: Pseudomonas aeruginosa IFO 13130; assay type: cell-based; settings: IFO13130, 20 μg/disc (diameter 8 mm), read-out: Inhibition Circle
From the text: as §1

[4] = test system: Pyricularia oryzae IFO 5994; test: microbe, parasite or virus in culture; assay type: cell-based; settings: IFO5994, read-out: Inhibition Circle
KB = test: Cell-killing activity; assay type: cell-based; settings: Homo sapiens; KB cells; read-out: ID50 (concentration at which 50% of cancer cells are killed)
HeLa = test: Cell-killing activity; assay type: cell-based; settings: Homo sapiens; HeLa cells; read-out: ID50 (concentration at which 50% of cancer cells are killed)
Solubility = assay type: physicochemical

CC=C(C)C(O)C(C)C=C(C)C=CCC(C)=CCc1nc(OC)c(OC)c(OC2OC(C)C(O)C(O)C2O)c1C (stereo not drawn)
zone of inhibition at 20 µg/disc (Alternaria mali IFO 8984): 0 mm | zone of inhibition at 20 µg/disc [1]: 0 mm | zone of inhibition at 20 µg/disc (Chlorella vulgaris): 0 mm | zone of inhibition at 20 µg/disc [2]: 13.3 mm | zone of inhibition at 20 µg/disc (Escherichia coli AB 1157): 0 mm | zone of inhibition at 20 µg/disc (Escherichia coli BE 1186): 0 mm | zone of inhibition at 20 µg/disc [3]: 0 mm | zone of inhibition at 20 µg/disc [4]: 19.1 mm | IC50 (KB): 0.74 µg/mL (≈ 1.32 µM) | IC50 (HeLa): 2.8 µg/mL (≈ 4.98 µM) | Solubility (Solubility; chloroform, dimethyl sulfoxide, methanol, acetone): Soluble in chloroform, dimethyl sulfoxide, methanol and acetone | Solubility (Solubility; n-hexane, water): Insoluble in n-hexane and water
